Assay results: patent US20260042762A1 (Kymera Therapeutics, Inc., priority 2018, published 2026)

target: T1, MerTK (Homo sapiens, UniProt Q12866); experiment: MerTk degradation in Jurkat cells (Western blot); format: cell-based; settings: 0.001-1 μM, 4 hour-incubation at 37° C.
T1 construct: endogenous in cells; host or cells: Jurkat cells
T1 sequence (Q12866 21-999): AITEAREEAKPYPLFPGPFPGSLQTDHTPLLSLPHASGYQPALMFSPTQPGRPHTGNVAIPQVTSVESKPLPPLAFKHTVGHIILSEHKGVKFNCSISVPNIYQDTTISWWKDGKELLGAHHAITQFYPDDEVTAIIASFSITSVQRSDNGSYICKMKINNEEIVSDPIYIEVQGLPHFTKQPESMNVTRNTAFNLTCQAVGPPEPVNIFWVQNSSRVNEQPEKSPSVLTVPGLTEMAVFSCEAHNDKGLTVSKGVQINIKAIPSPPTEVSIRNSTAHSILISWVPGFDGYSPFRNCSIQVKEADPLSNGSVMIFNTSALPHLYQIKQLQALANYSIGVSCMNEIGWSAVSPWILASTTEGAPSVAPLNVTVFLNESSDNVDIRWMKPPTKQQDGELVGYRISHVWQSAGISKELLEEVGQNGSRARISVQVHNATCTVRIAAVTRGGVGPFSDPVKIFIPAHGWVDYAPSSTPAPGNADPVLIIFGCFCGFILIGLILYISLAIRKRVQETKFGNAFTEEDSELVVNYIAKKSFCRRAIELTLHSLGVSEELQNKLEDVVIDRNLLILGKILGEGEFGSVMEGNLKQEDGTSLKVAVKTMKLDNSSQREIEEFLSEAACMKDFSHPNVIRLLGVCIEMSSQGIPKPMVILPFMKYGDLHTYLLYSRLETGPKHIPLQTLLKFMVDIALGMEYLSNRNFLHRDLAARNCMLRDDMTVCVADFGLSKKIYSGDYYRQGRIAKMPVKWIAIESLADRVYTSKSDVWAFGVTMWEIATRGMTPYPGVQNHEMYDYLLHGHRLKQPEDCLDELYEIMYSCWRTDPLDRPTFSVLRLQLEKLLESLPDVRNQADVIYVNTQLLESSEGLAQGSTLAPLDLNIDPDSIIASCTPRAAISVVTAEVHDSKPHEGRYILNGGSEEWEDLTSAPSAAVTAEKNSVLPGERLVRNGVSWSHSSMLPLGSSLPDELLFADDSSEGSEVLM
Outline: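 Jurkat cells treated 4 h at 37 °C with compound at 0.001-1 μM final. RIPA lysates quantified by BCA, then MerTK probed by Western blot against actin loading control with IR-dye secondaries and Odyssey imaging.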

Row | SMILES | Jurkat Max % MerTK Degradation
1 | C[C@H](CC(F)(F)F)Nc1ncc2c(-c3ccc(CN4CCN(CCCO[C@H]5CCN(Cc6ccc7c(c6)n(C)c(=O)n7C6CCC(=O)NC6=O)C5)CC4)cc3)cn([C@H]3CC[C@H](O)CC3)c2n1 (stereo partly shown) [I-198] | A (maximum MerTK degradation greater than 50%)

same assay, conditions: Jurkat, 4 h, 0.001-1 μM, 4 hour-incubation at 37° C., read-out: Jurkat Max % MerTK Degradation

Row | SMILES | Dmax
2 | Cc1cc(CNCc2ccc(C(=O)N3CC(C4CCN(Cc5ccc(-c6cn([C@H]7CC[C@H](O)CC7)c7nc(NCCC(F)(F)F)ncc67)cc5)CC4)C3)cc2)ccc1-c1ccc2nn(CC3CC3)cc2c1 [I-191, trans-4-[5-[4-([4-[1-(4-[[([4-[2-(cyclopropylmethyl)indazol-5-yl]-3-methylphenyl]methyl)amino]methyl]benzoyl)azetidin-3-yl]piperidin-1-yl]methyl)phenyl]-2-[(3,3,3-trifluoropropyl)amino]pyrrolo[2,3-d]pyrimidin-7-yl]cyclohexan-1-ol] | < 20%
3 | C[C@H](CC(F)(F)F)Nc1ncc2c(-c3ccc(CN4CCN(C5CC(OCCc6ccc7c(c6)n(C)c(=O)n7C6CCC(=O)NC6=O)C5)CC4)cc3)cn([C@H]3CC[C@H](O)CC3)c2n1 (stereo partly drawn) [I-194, 3-[3-methyl-2-oxo-5-[2-(3-[4-[(4-[7-[trans-4-hydroxycyclohexy1]-2-[[(2R)-4,4,4-trifluorobutan-2-yl]amino]pyrrolo[2,3-d]pyrimidin-5-yl]phenyl)methyl]piperazin-1-yl]cyclobutoxy)ethyl]-1,3-benzodiazol-1-yl]piperidine-2,6-dione] | > 50%
4 | C[C@@H](CC(F)(F)F)Nc1ncc2c(-c3ccc(CN4CCN(C5CC(OCCc6ccc7c(c6)n(C)c(=O)n7C6CCC(=O)NC6=O)C5)CC4)cc3)cn([C@H]3CC[C@H](O)CC3)c2n1 (stereo partly drawn) [I-195, 3-[3-methyl-2-oxo-5-[2-(3-[4-[(4-[7-[trans-4-hydroxycyclohexy1]-2-[[(2S)-4,4,4-trifluorobutan-2-yl]amino]pyrrolo[2,3-d]pyrimidin-5-yl]phenyl)methyl]piperazin-1-yl]cyclobutoxy)ethyl]-1,3-benzodiazol-1-yl]piperidine-2,6-dione] | 20 to 50%
5 | O=C(c1ccc(CNCc2ccc(-c3ccc4c(cnn4CC4CC4)c3)cc2)cc1)N1CCC(C2CCN(Cc3ccc(-c4cn([C@H]5CC[C@H](O)CC5)c5nc(NCCC(F)(F)F)ncc45)cc3)CC2)CC1 [I-202, (4-(((4-(1-(cyclopropylmethyl)-1H-indazol-5-yl)benzyl)amino)methyl)phenyl)(1′-(4-(7-(trans-4-hydroxycyclohexyl)-2-((3,3,3-trifluoropropyl)amino)-7H-pyrrolo[2,3-d]pyrimidin-5-yl)benzyl)-[4,4′-bipiperidin]-1-yl)methanone; formic acid] | < 20%
6 | CN1CCN(Cc2ccc(-c3ccc(CO[C@H]4CCC[C@@H]4NC(=O)c4cc(-c5cnn(CCOCCOCCOCCCc6ccc7c(c6)n(C)c(=O)n7C6CCC(=O)NC6=O)c5)cnc4N)cc3)cc2)CC1 (stereo partly drawn) [I-203, 2-Amino-5-(1-[2-[2-(2-[3-[1-(2,6-dioxopiperidin-3-yl)-3-methyl-2-oxo-1,3-benzodiazol-5-yl]propoxy]ethoxy)ethoxy]ethyl]pyrazol-4-yl)-N-[(1S,2S)-2-([4-[(4-methylpiperazin-1-yl)methyl]-[1,1-biphenyl]-4-yl]methoxy)cyclopentyl]pyridine-3-carboxamide] | 20 to 50%
7 | CN1CCN(Cc2ccc(-c3ccc(CO[C@H]4CCC[C@@H]4NC(=O)c4cc(-c5cnn(CCOCCOCCOCCCc6cccc7c6n(C)c(=O)n7C6CCC(=O)NC6=O)c5)cnc4N)cc3)cc2)CC1 (stereo partly drawn) [I-204, 2-Amino-5-(1-[2-[2-(2-[3-[1-(2,6-dioxopiperidin-3-yl)-3-methyl-2-oxo-1,3-benzodiazol-4-yl]propoxy]ethoxy)ethoxy]ethyl]pyrazol-4-yl)-N-[(1S,2S)-2-([4-[(4-methylpiperazin-1-yl)methyl]-[1,1-biphenyl]-4-yl]methoxy)cyclopentyl]pyridine-3-carboxamide] | 20 to 50%
8 | CCC[C@H](C)Nc1ncc2c(n1)n([C@H]1CC[C@H](O)CC1)cc2[C@H]1CC[C@@H](CN2CCN(C3CC(OCCc4ccc5c(c4)n(C)c(=O)n5C4CCC(=O)NC4=O)C3)CC2)CC1 (stereo partly drawn) [I-206, 3-(3-methyl-2-oxo-5-[2-[3-(4-[cis-4-[2-[(2S)-pentan-2-ylamino]-7-[trans-4-hydroxycyclohexyl]pyrrolo[2,3-d]pyrimidin-5-yl]cyclohexyl]methyl]piperazin-1-yl)cyclobutoxylethyl]-1,3-benzodiazol-1-y1)piperidine-2,6-dione] | > 50%
9 | CCC[C@H](C)Nc1ncc2c(n1)n([C@H]1CC[C@H](O)CC1)cc2[C@H]1CC[C@@H](CN2CCN(CCCOC3CCN(Cc4ccc5c(c4)n(C)c(=O)n5C4CCC(=O)NC4=O)CC3)CC2)CC1 (stereo partly shown) [I-207] | > 50%

Other lines, results leading:

Row | Dmax | SMILES
10 | > 50% | CCC[C@H](C)Nc1ncc2c(-c3ccc(CN4CCN(CCCOC5CCN(Cc6ccc7c(c6)n(C)c(=O)n7C6CCC(=O)NC6=O)CC5)CC4)cc3)cn([C@H]3CC[C@H](O)CC3)c2n1 (stereo partly drawn) [I-189, 3-(3-methyl-2-oxo-5-[[4-(3-[4-[(4-[2-[(2S)-pentan-2-ylamino]-7-[trans-4-hydroxycyclohexyl]pyrrolo[2,3-d]pyrimidin-5-yl]phenyl)methyl]piperazin-1-yl]propoxy)piperidin-1-y1]methyl]-1,3-benzodiazol-1-y1)piperidine-2,6-dione; formic acid]
11 | > 50% | Cc1ncsc1-c1ccc(CNC(=O)[C@@H]2C[C@@H](O)CN2C(=O)[C@@H](NC(=O)C2(F)CC2)C(C)(C)C)c(OCCOCCOCCOCCN2CCN(Cc3ccc(-c4cn([C@H]5CC[C@H](O)CC5)c5nc(NCCC(F)(F)F)ncc45)cc3)CC2)c1 [I-190]
12 | > 50% | C[C@H](CC(F)(F)F)Nc1ncc2c(-c3ccc(CN4CCN(CCCOC5CCN(Cc6ccc7c(c6)n(C)c(=O)n7C6CCC(=O)NC6=O)CC5)CC4)cc3)cn([C@H]3CC[C@H](O)CC3)c2n1 (stereo partly drawn) [I-196, 3-(3-methyl-2-oxo-5-[[4-(3-[4-[(4-[7-[trans-4-hydroxycyclohexyl]-2-[[(2R)-4,4,4-trifluorobutan-2-yl]amino]pyrrolo[2,3-d]pyrimidin-5-y1]phenyl)methyl]piperazin-1-yl]propoxy)piperidin-1-yl]methyl]-1,3-benzodiazol-1-yl)piperidine-2,6-dione]
13 | > 50% | C[C@@H](CC(F)(F)F)Nc1ncc2c(-c3ccc(CN4CCN(CCCOC5CCN(Cc6ccc7c(c6)n(C)c(=O)n7C6CCC(=O)NC6=O)CC5)CC4)cc3)cn([C@H]3CC[C@H](O)CC3)c2n1 (stereo partly drawn) [I-197, 3-(3-methyl-2-oxo-5-[[4-(3-[4-[(4-[7-[trans-4-hydroxycyclohexyl]-2-[[(2S)-4,4,4-trifluorobutan-2-yl]amino]pyrrolo[2,3-d]pyrimidin-5-yl]phenyl)methyl]piperazin-1-yl]propoxy)piperidin-1-yl]methyl]-1,3-benzodiazol-1-y1)piperidine-2,6-dione]
14 | 20 to 50% | C[C@@H](CC(F)(F)F)Nc1ncc2c(-c3ccc(CN4CCN(CCCO[C@H]5CCN(Cc6ccc7c(c6)n(C)c(=O)n7C6CCC(=O)NC6=O)C5)CC4)cc3)cn([C@H]3CC[C@H](O)CC3)c2n1 (stereo partly drawn) [I-199, 3-(3-methyl-2-oxo-5-[[(3S)-3-(3-[4-[(4-[7-[trans-4-hydroxycyclohexy1]-2-[[(2S)-4,4,4-trifluorobutan-2-yl]amino]pyrrolo[2,3-d]pyrimidin-5-yl]phenyl)methyl]piperazin-1-yl]propoxy)pyrrolidin-1-yl]methyl]-1,3-benzodiazol-1-yl)piperidine-2,6-dione]
15 | > 50% | C[C@H](CC(F)(F)F)Nc1ncc2c(-c3ccc(CN4CCN(CCCOC5CN(Cc6ccc7c(c6)n(C)c(=O)n7C6CCC(=O)NC6=O)C5)CC4)cc3)cn([C@H]3CC[C@H](O)CC3)c2n1 (stereo partly drawn) [I-200, trans-3-(3-methyl-2-oxo-5-[[3-(3-[4-[(4-[7-[4-hydroxycyclohexyl]-2-[[(2R)-4,4,4-trifluorobutan-2-yl]amino]pyrrolo[2,3-d]pyrimidin-5-yl]phenyl)methyl]piperazin-1-yl]propoxy)azetidin-1-y1]methyl]-1,3-benzodiazol-1-y1)piperidine-2,6-dione; tris(formic acid)]
16 | 20 to 50% | C[C@@H](CC(F)(F)F)Nc1ncc2c(-c3ccc(CN4CCN(CCCOC5CN(Cc6ccc7c(c6)n(C)c(=O)n7C6CCC(=O)NC6=O)C5)CC4)cc3)cn([C@H]3CC[C@H](O)CC3)c2n1 (stereo partly drawn) [I-201, 3-(3-methyl-2-oxo-5-[[3-(3-[4-[(4-[7-[trans-4-hydroxycyclohexy1]-2-[[(2S)-4,4,4-trifluorobutan-2-yl]amino]pyrrolo[2,3-d]pyrimidin-5-y1]phenyl)methyl]piperazin-1-yl]propoxy)azetidin-1-yl]methy1]-1,3-benzodiazol-1-yl)piperidine-2,6-dione; tris(formic acid)]
